Laboratory results as given in patent US20250051307A1, “SALT OF 3,4-DIHYDROISOQUINOLINE COMPOUND AND USE THEREOF” (CSPC ZHONGQI PHARMACEUTICAL TECHNOLOGY(SHIJIAZHUANG) CO., …, priority 2021, published 2025).
Read-outs that look alike come from different tables or passages of the source. Marks after values point to notes of the source that are not given here. One block for each molecule: values may come before it.

Legend:
[1] = Solid stability of crystal forms under different humidity conditions (XRPD); format: physicochemical; details: 7 days
From the text: (§1) The samples were subjected to X-ray powder diffraction to investigate the stability of the samples under different conditions, and the results are shown in the following table.

[2] = Solid stability of crystal forms at high temperature (XRPD); format: physicochemical; details: 60° C., sealed, 7 days
From the text: as §1

[3] = test system: human acute monocytic leukemia cell line MV4-11; test: MV4-11 MTT cell growth inhibition; format: cell-based
From the text: The complete medium required for the culture of human acute monocytic leukemia cell line MV4-11 (Shanghai Cell Bank) for experiment was IMDM (CatNO. 12440-053, gibco) supplemented with 10% FBS (Cat NO. SA311.02, cellmax). […] The experiment reagents included dimethyl sulfoxide (Tianjin Kemiou Chemical Reagent Co., Ltd.) and MTT (THIAZOLYL BLUE TETRAZOLIUM BROMIDE, CAS. NO. 298-93-1, VWR). The control compound GSK3326595 for experiment was homemade or commercially available. The test compound was encapsulated and stored at 4° C.
Dimethyl sulfoxide was used as a vehicle to fully dissolve the test compound, thereby formulating a stock solution at a concentration of 5×10^−2 mol/L. The stock solution was stored at −20° C. With the complete medium as diluent, the test compound was subjected to gradient dilution to afford dilutions at different concentrations for standby application. In a 96-well culture plate, the suspension of the human acute monocytic leukemia cell line MV4-11 in the complete medium, at a volume of 100 μL/well (2×10^3 cells/well), was added. […] The OD value at 550 nm was measured with a microplate reader. […] The cell growth inhibition rate was calculated according to the following equation: […]
According to the inhibition rate at each concentration, the half maximal inhibitory concentration IC50 value was calculated using the SPSS software.

[4] = Pharmacokinetic experiment in SD rats; format: in vivo; details: 25 mg/kg by gavage; for Cmax / Tmax / AUC(0-t): male, Sprague-Dawley (SD), rat, po, plasma; for AUC(0-t): read-out: AUC0-24h
Method: SD rats (male, 180 g to 200 g, Beijing Vital River Laboratory Animal Technology Co., Ltd.) were administered with the test compounds (solvent: 2% DMSO+98% (0.2 g/mL) hydroxypropyl-β-cyclodextrin, dosing volume: 5 mL/kg) by gavage. Blood was collected from the orbits of the rats at different points in time (0.25, 0.5, 1, 2, 4, 8, 24 h) after administration. The collected whole blood was anticoagulated with heparin sodium and centrifuged at 3000 g to obtain rat plasma samples, and methanol was added thereto to precipitate proteins. The drug concentration in rat plasma after administration was determined by HPLC-MS/MS method. A drug concentration-time curve was plotted and the pharmacokinetic parameters were calculated. Pharmacokinetic behaviors of the compounds after administration in rats were described by means of the parameter estimation of non-compartmental model based on statistical moment theory.

[5] = test system: MV4-11 subcutaneous xenograft; test: MV4-11 subcutaneous xenograft model, in vivo efficacy; design: species or system NOD-SCID mice; details: for Body Weight Change (%): 11 consecutive days; for d9 Tumor Volume (mm^3): 9th day after administration; for d0 Tumor Volume (mm^3): before grouping for administration, 100 mg/kg group; for RTV (d9): d9 tumor volume/d0 tumor volume; for Tumor Weight: end of experiment; for Tumor Weight / Tumor weight inhibition rate (%): 11 days; for Tumor weight inhibition rate (%): vs vehicle group
Method: Experimental female NOD-SCID mice, SPF grade, 4 to 5 weeks, were purchased from Beijing Vital River Laboratory Animal Technology Co., Ltd. The mice were intraperitoneally injected with cyclophosphamide at a dose of 100 mg/kg one day before cell inoculation. The human acute monocytic leukemia cell line MV4-11 (1×10^7/0.1 ml/mouse) was subcutaneously inoculated into forelimb axilla of mice to establish a subcutaneous xenograft model. When the tumor volumes reached about 110 mm^3 (10 days after inoculation), the mice were equally grouped according to the tumor volume, with 5 mice in each group, i.e., vehicle group (2% DMSO+98% (0.2 g/mL) hydroxypropyl-β-cyclodextrin) and test drug groups. For the test drug groups, the dose of administration was 100 mg/kg, the dosing volume was 10 mL/kg, the dosing frequency was BID, the tumor diameters were measured twice per week, and the data was recorded. The mice were administered for 11 consecutive days. When the experiment ended, the tumors were dissected and weighed.
The body weight growth rate, the tumor volume, and the tumor weight inhibition rate were calculated according to the following equations: body weight growth rate=X(Wi-W0)/XW0×100%, where Wi denoted the body weight of a mouse in each test drug group on the n^th day, and W0 denoted the body weight of a mouse in each test drug group at the beginning of administration; tumor volume (V)=½× a× b^2, where a and b denoted the long diameter and the short diameter of a tumor, respectively; d0 denoted before grouping for administration, d9 denoted the 9th day after administration, relative tumor volume (RTV)=d9 tumor volume/d0 tumor volume; tumor weight inhibition rate=(tumor weightvehicle group−tumor weighttest drug group)/tumor weightvehicle group×100%.

[6] = Solubility determination in water and biological media; format: physicochemical; details: for solubility at 24 h: thermodynamic from solid, 37° C., solubility is in free state; for Solubility compared with the free base sample: water and FassIF media, vs Preparation Example 1
From the text: • FaSSIF: human fasted state simulated intestinal fluid; FeSSIF: human fed state simulated intestinal fluid; SGF: human fasted state simulated gastric fluid.

[7] = Long-term (three months) stability of Crystal Form I; format: physicochemical
[8] = target: PRMT5 (Homo sapiens (Human), UniProt O14744); test: Radiometric assay for PRMT5 based on FlashPlate technology; format: biochemical
Method: The radiometric assay for PRMT5 based on FlashPlate technology was adopted to determine IC50 of the test compound.
After dissolved in dimethyl sulfoxide respectively, the test compounds were added into an Echo Qualified 384-well plate and diluted to the desired concentrations. The diluted test compounds were transferred from the Echo Qualified 384-well plate to a 384-well reaction plate using an Echo 550 instrument, and dimethyl sulfoxide was transferred into both the control and blank wells. […] At a volume of 15 μL/well, the 1.67× enzyme solution was added into wells of the 384-well reaction plate. […] The reaction plate was centrifuged at 1000 rpm for 1 min, and incubated at room temperature for 15 min. […] From each well of the test plate, 25 μL was measured and transferred to Flashplate and left at room temperature for 1 h. Thereafter, the Flashplate was washed with 0.1% Tween-20 solution three times. Readings were taken with MicroBeta 2. The data was converted into the inhibition rate data. Inhibition rate=(conversion ratecontrol well−conversion ratecompound well)/(conversion ratecontrol well−conversion rateblank well)×100%.

[9] = FaSSIF (human fasted state simulated intestinal fluid), FassIF, read-out: 24 h solubility (mg/mL) FassIF
[10] = SGF (human fasted state simulated gastric fluid), simulated gastric fluid, SGF, read-out: 24 h solubility (mg/mL) SGF
[11] = water, read-out: 24 h solubility (mg/mL) Water
[12] = vs positive control drug GSK3326595

Sequence of PRMT5 (O14744 whole entry): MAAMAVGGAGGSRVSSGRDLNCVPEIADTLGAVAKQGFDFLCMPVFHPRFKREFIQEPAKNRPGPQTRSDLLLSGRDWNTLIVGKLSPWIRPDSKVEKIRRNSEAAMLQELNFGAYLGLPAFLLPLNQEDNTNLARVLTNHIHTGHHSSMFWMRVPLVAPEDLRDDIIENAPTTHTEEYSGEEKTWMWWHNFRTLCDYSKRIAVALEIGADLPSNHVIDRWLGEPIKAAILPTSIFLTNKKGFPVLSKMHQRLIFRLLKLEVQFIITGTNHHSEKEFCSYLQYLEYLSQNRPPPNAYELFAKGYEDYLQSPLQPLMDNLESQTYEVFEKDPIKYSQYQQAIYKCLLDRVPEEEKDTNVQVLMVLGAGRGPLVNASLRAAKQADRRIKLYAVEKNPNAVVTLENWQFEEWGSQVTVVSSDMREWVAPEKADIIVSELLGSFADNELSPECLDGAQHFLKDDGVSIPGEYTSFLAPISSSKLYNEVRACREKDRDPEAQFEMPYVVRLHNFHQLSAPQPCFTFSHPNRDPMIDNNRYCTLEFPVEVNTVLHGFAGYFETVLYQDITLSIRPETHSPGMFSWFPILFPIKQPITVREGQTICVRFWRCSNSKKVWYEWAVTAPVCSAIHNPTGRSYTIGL
Sequence of PRMT5 (Q9BQA1 whole entry partner): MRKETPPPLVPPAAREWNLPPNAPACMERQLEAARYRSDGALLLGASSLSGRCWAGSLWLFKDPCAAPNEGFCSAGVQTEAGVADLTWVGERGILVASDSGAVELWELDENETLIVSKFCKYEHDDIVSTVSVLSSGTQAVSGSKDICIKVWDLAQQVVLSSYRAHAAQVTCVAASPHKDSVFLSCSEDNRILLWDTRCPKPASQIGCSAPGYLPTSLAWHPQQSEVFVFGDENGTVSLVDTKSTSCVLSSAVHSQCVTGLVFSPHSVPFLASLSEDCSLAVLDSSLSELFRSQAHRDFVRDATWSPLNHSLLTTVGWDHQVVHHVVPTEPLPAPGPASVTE

Crystal form after storage (XRPD) ([1]; 23° C./33% RH): Crystal Form IV
Crystal form after storage (XRPD) ([1]; 25° C./60% RH): Crystal Form IV
Crystal form under different humidity conditions (conclusion) [1]: unchanged
Compound: CON=C(C)C(=O)N1CCC(Nc2cc(C(=O)NC[C@H](O)CN3CCc4ccccc4C3)ncn2)CC1.O=C(O)C[C@H](O)C(=O)O [Example 4]

solubility at 24 h [6, 9]: > 4.7 mg/mL
solubility at 24 h [6, 10]: > 4.8 mg/mL
solubility at 24 h [6, 11]: > 4.9 mg/mL
Solubility compared with the free base sample [6]: significantly higher
Compound: CON=C(C)C(=O)N1CCC(Nc2cc(C(=O)NC[C@H](O)CN3CCc4ccccc4C3)ncn2)CC1.O=C(O)C[C@H](O)C(=O)O [Example 7]

Crystal form after storage (XRPD) [2]: Crystal Form V
Compound: CON=C(C)C(=O)N1CCC(Nc2cc(C(=O)NC[C@H](O)CN3CCc4ccccc4C3)ncn2)CC1.O=C(O)C[C@H](O)C(=O)O [Example 5]

Crystal Form after storage ([7]; 3 months, long-term stability): Crystal Form I
Purity after storage ([7]; 3 months, long-term stability): 99.32%
Initial purity ([7]; before long-term storage): 99.43%
Compound: CON=C(C)C(=O)N1CCC(Nc2cc(C(=O)NC[C@H](O)CN3CCc4ccccc4C3)ncn2)CC1.O=C(O)C[C@H](O)C(=O)O [Example 1]

Second part, the molecule before the results:

Compound: CON=C(C)C(=O)N1CCC(Nc2cc(C(=O)NC[C@H](O)CN3CCc4ccccc4C3)ncn2)CC1.O=C(O)C[C@H](O)C(=O)O [Example 3]
Crystal form after storage (XRPD) ([1]; 23° C./33% RH): Crystal Form III
Crystal form after storage (XRPD) ([1]; 25° C./60% RH): Crystal Form III
Crystal form under different humidity conditions (conclusion) [1]: unchanged

Compound: CON=C(C)C(=O)N1CCC(Nc2cc(C(=O)NC[C@H](O)CN3CCc4ccccc4C3)ncn2)CC1.O=C(O)C[C@H](O)C(=O)O [Example 2]
Crystal form after storage (XRPD) ([1]; 23° C./33% RH): Crystal Form II
Crystal form after storage (XRPD) ([1]; 25° C./60% RH): Crystal Form II
Crystal form under different humidity conditions (conclusion) [1]: unchanged
Crystal form after storage (XRPD) [2]: Crystal Form II

Compound: CC(=O)N1CCC(Nc2cc(C(=O)NC[C@H](O)CN3CCc4ccccc4C3)ncn2)CC1 [GSK3326595, reference compound]
IC50 ([3]; Homo sapiens, MV4-11, 144 h, MTT on Day 6): 6.68 nM
Cmax [4]: 60.3 ng/mL
Tmax [4]: 2.67 h
AUC(0-t) [4]: 589 ng·h/mL
Body Weight Change (%) ([5]; 100 mg/kg BID): −6.8%
d9 Tumor Volume (mm^3) ([5]; 100 mg/kg BID): 135 ± 43** mm^3
d0 Tumor Volume (mm^3) [5]: 165.2 ± 23.1 mm^3
RTV (d9) ([5]; 100 mg/kg BID): 0.8 ± 0.2
Tumor Weight ([5]; 100 mg/kg BID): 0.1124 ± 0.0764 g
Tumor weight inhibition rate (%) ([5]; 100 mg/kg BID): 84.5%

Compound: CON=C(C)C(=O)N1CCC(Nc2cc(C(=O)NC[C@H](O)CN3CCc4ccccc4C3)ncn2)CC1.O=C(O)C(=O)O [Example 11]
solubility at 24 h [6, 9]: > 9.1 mg/mL
solubility at 24 h [6, 10]: > 9.2 mg/mL
solubility at 24 h [6, 11]: > 9.1 mg/mL
Solubility compared with the free base sample [6]: significantly higher

Compound: CON=C(C)C(=O)N1CCC(Nc2cc(C(=O)NC[C@H](O)CN3CCc4ccccc4C3)ncn2)CC1 [Compound of formula (A)]
solubility at 24 h [6, 9]: 1.7 mg/mL
solubility at 24 h [6, 10]: > 4.4 mg/mL
solubility at 24 h [6, 11]: 0.39 mg/mL
Inhibitory activity at cell level compared with GSK3326595 [3, 12]: better inhibitory activities
Absorption in rats compared with GSK3326595 [4]: better absorbed
Cmax [4]: 2370 ng/mL
Tmax [4]: 0.333 h
AUC(0-t) [4]: 4410 ng·h/mL
IC50 ([8]; PRMT5 5 nM, [3H]-SAM, 25° C. 60 min, read-out: Enzymology (IC50)): 31 nM
Inhibitory activity at enzyme level compared with GSK3326595 [8, 12]: better inhibitory activities
Tumor-inhibitory activity in MV4-11 xenografts model ([5]; 100 mg/kg BID): significant tumor-inhibitory activity
Body Weight Change (%) ([5]; 100 mg/kg BID): −6.1%
d9 Tumor Volume (mm^3) ([5]; 100 mg/kg BID): 55.7 ± 19.7 ***## mm^3
d0 Tumor Volume (mm^3) [5]: 165.3 ± 27.5 mm^3
RTV (d9) ([5]; 100 mg/kg BID): 0.4 ± 0.1
Tumor Weight ([5]; 100 mg/kg BID): 0.0648 ± 0.0267 g
Tumor weight inhibition rate (%) ([5]; 100 mg/kg BID): 91.1%
